This note sets out measurements from patent US20240368150A1 (Hoffmann-La Roche Inc., priority 2021, published 2024).

Assay [1] deals with primary human T-cells. In words: Proliferation assay after 5 days (CellTiter-Glo, CD3 stimulation; PBS counter screen). It is filed as cell-based. To be noted: CD3 stimulation; for Emax: read-out: Emax proliferation (% activation); for EC50: primary human T-cells, CellTiter-Glo after 5 days, EC50 of fitted sigmoidal curve, read-out: Tcell Proliferation CD3 EC50. An outline of the steps:
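ATP-based luminescence (CellTiter-Glo 2.0, room temperature) measured proliferation 5 days after compound addition to CD3-stimulated or unstimulated primary human T-cells. Flags marked compounds that lowered viability or activated unstimulated cells.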

Another assay relates to MV-3 cells. The assay can be described thus: T-cell - TCB - MV3 killing assay (MCSP-TCB, RFP object count by Incucyte). The settings on record: Homo sapiens, MV-3, 120 h, 5 d; for Emax: normalized: MCSP-TCB only = neutral control, 20 μM reference compound A1 = 100%, read-out: MSCP TCB killing MV-3 cells 5 d Emax; for EC50: primary human T-cells + MCSP-TCB, MV-3 RFP cells, read-out: MSCP TCB killing MV-3 cells 5 d EC50. The assay is classed as cell-based, human.

In a further assay the target is hDGKzeta(1-928)-N-His (Homo sapiens (Human), UniProt Q13574). The assay can be described thus: DGKzeta ADP Glo assay (in vitro DGK inhibition). It is filed as biochemical. The settings on record: DLG 125 uM, ATP 50 μM, DGK ζ 2 nM, 1 hour reaction. An outline of the steps:
(§1)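 His-tagged human DGKα (4 nM) and DGKζ (2 nM) phosphorylate DLG presented in DLG/PS/PC liposomes using ATP; reaction run 1 hour. ADP formed measured by ADP-Glo luminescence. Compounds tested as 11-point 1:3 dose response […], 2% DMSO final.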
Background: ADP-Glo first removes unused ATP, then detects ADP through luciferase.

The target of the next assay is hDGKalpha(1-735)-N-His (Homo sapiens (Human), UniProt P23743). In words: DGKalpha ADP Glo assay (in vitro DGK inhibition). It is filed as biochemical. The settings on record: DLG 125 uM, ATP 25 μM, DGK α 4 nM, 1 hour reaction. An outline of the steps:
as §1

Assay [2] relates to primary human T-cells.
Where [3] appears, read: Homo sapiens, T-cell, 120 h, 5 days, normalized to reference compound A1 as stimulator control = 100%, DMSO neutral control.

The structures appear in SMILES notation. Read-outs that look alike come from different tables or passages of the source.

The IC50 is the concentration that gives 50% inhibition. A low value points to inhibition by little substance.

hDGKalpha(1-735)-N-His, sequence (P23743 whole entry): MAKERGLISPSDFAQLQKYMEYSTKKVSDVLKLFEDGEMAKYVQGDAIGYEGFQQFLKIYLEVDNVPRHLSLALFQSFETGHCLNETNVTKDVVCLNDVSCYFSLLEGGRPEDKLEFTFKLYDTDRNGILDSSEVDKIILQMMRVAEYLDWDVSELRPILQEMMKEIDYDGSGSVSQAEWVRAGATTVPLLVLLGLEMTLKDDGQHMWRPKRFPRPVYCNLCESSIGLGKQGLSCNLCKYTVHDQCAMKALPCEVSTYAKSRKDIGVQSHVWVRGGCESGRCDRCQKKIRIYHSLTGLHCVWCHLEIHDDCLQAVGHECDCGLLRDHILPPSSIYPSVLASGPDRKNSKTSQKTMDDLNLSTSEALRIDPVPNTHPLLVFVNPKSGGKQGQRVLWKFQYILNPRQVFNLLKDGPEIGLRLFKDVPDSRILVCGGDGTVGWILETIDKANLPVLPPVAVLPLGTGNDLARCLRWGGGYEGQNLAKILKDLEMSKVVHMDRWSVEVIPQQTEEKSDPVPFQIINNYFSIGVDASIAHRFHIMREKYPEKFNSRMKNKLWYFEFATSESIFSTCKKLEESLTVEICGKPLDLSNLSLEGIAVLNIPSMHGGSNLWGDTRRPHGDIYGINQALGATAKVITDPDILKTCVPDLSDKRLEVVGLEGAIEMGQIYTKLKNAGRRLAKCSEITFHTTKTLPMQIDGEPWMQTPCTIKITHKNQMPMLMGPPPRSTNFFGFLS
hDGKzeta(1-928)-N-His, sequence (Q13574 whole entry): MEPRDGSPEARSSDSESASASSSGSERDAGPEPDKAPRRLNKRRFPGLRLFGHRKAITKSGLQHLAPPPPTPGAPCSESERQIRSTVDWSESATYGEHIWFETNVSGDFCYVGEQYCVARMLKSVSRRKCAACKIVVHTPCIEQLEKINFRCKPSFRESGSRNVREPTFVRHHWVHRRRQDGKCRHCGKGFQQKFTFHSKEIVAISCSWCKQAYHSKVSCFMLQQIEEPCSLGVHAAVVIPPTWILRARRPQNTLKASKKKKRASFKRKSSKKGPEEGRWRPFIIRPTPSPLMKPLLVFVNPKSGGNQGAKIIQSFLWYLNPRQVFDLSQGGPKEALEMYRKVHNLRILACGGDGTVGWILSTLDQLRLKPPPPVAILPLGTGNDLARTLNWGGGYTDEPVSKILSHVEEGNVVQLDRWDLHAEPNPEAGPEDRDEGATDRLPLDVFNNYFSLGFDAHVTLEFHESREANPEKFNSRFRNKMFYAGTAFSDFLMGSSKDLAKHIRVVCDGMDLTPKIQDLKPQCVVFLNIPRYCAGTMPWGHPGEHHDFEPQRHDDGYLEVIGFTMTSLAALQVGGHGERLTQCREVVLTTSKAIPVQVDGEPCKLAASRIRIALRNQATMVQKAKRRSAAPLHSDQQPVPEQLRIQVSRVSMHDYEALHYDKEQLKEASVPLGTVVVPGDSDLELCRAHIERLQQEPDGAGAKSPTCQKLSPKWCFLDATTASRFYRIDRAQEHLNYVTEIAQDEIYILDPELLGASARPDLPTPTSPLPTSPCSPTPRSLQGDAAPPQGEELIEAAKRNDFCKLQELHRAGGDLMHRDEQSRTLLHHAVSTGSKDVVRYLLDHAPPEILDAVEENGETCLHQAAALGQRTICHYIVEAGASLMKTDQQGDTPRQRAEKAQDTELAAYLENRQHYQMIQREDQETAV

Consider `CN1CCCC(F)(c2nnc(-c3ccc4c(c3)N(Cc3ccc(Cl)cc3)C(=O)[C@@H](N)CS4(=O)=O)o2)C1` (stereo partly drawn) [Example 384, (3R)-3-amino-5-[(4-chlorophenyl)methyl]-7-[5-(3-fluoro-1-methyl-3-piperidyl)-1,3,4-oxadiazol-2-yl]-1,1-dioxo-2,3-dihydro-1λ^6,5-benzothiazepin-4-one], for which the values for the Emax in the assay with primary human T-cells [1] (setting [3]) and with MV-3 cells were 112% and 110%, respectively. For the same compound, the EC50 came out at 698 nM in the assay on primary human T-cells [1] (Homo sapiens, T-cell, 120 h); 990 nM with MV-3 cells; 792 nM in the assay with primary human T-cells [2]. The IC50 at hDGKzeta(1-928)-N-His was determined as 2250 nM; against hDGKalpha(1-735)-N-His, 4580 nM.

In the case of `CC(N)(c1nc(-c2cc3c(cc2F)S(=O)(=O)C[C@H](N)C(=O)N3Cc2ccc(OC(F)(F)F)cc2)no1)C(F)(F)F` (stereo partly drawn) [Example 331, (3R)-3-amino-7-[5-(1-amino-2,2,2-trifluoro-1-methyl-ethyl)-1,2,4-oxadiazol-3-yl]-8-fluoro-1,1-dioxo-5-[[4-(trifluoromethoxy)phenyl]methyl]-2,3-dihydro-1λ^6,5-benzothiazepin-4-one], the figures for the Emax in the assay with primary human T-cells [1] (setting [3]) and in the assay with MV-3 cells were 126% and 116%, respectively. The EC50 in the assay with primary human T-cells [1] (Homo sapiens, T-cell, 120 h) worked out at 58.4 nM; in the assay with MV-3 cells, 30 nM; in the assay on primary human T-cells [2] it was 74.6 nM. Further, the values for the IC50 on hDGKzeta(1-928)-N-His and at hDGKalpha(1-735)-N-His were 176 nM and 857 nM, respectively.

For the compound `CC(C)(C)c1nnc(-c2cc3c(cc2F)S(=O)(=O)C[C@H](NC(=O)CN)C(=O)N3Cc2ccc(Cl)cc2)o1` [Example 266, 2-amino-N-[(3R)-7-(5-tert-butyl-1,3,4-oxadiazol-2-yl)-5-[(4-chlorophenyl)methyl]-8-fluoro-1,1,4-trioxo-2,3-dihydro-1λ^6,5-benzothiazepin-3-yl]acetamide], the Emax with primary human T-cells [1] (setting [3]) turned out to be 137%; in the assay with MV-3 cells it was 76%. The EC50 in the assay on primary human T-cells [1] (Homo sapiens, T-cell, 120 h) was determined as 77.5 nM; in the assay on MV-3 cells, 20 nM; with primary human T-cells [2], 214 nM. For the same compound, the IC50 on hDGKzeta(1-928)-N-His worked out at 40100 nM; on hDGKalpha(1-735)-N-His it was 54500 nM.

`CC(C)(C)c1nnc(-c2cc3c(cc2F)[S+]([O-])C[C@H](N)C(=O)N3Cc2ccc(OC(F)(F)F)cc2)o1` (stereo partly drawn) [Example 62, (3R)-3-amino-7-(5-tert-butyl-1,3,4-oxadiazol-2-yl)-8-fluoro-1-oxo-5-[[14-(trifluoromethoxy)phenyl]methyl]-2,3-dihydro-1λ^4,5-benzothiazepin-4-one]: the “Emax proliferation (% activation)” value in the assay on primary human T-cells [1] (5 days, normalized to reference compound A1 as stimulator control = 100%, DMSO neutral control) came to 88 % activation. Also, the EC50 with primary human T-cells [1] was found to be 721 nM; in the assay on MV-3 cells, 260 nM; with primary human T-cells [2], 149 nM. Further, the Emax with MV-3 cells worked out at 81%. The IC50 worked out at 622 nM on hDGKzeta(1-928)-N-His and 452 nM against hDGKalpha(1-735)-N-His.

Regarding `CC(C)(C)c1nnc(-c2cc3c(cc2F)S(=O)(=O)C[C@H](N)C(=O)N3Cc2ccc(OC(F)(F)F)cc2)o1` [Example 57, (3R)-3-Amino-7-(5-tert-butyl-1,3,4-oxadiazol-2-yl)-8-fluoro-1,1-dioxo-5-[[4-(trifluoromethoxy)phenyl]methyl]-2,3-dihydro-1λ^6,5-benzothiazepin-4-one], the Emax in the assay with primary human T-cells [1] (setting [3]) was 231%; with MV-3 cells it was 100%. Besides, the EC50 was 32.7 nM with primary human T-cells [1] (Homo sapiens, T-cell, 120 h); 50 nM in the assay on MV-3 cells; 36.7 nM with primary human T-cells [2]. Besides, the results for the IC50 against hDGKzeta(1-928)-N-His and on hDGKalpha(1-735)-N-His were 254 nM and 210 nM, respectively.
